According to ChEMBL document CHEMBL1125551, “Conformationally restricted analogues of disoxaril: a comparison of the activity against human rhinovirus types 14 and 1A” (1992):
≈ marks a conversion by molar mass, not a printed value.

Experiments:
Human rhinovirus 1A = test: In vitro determined against HRV-1A in a plaque reduction assay; assay type: functional
rhinovirus B14 = test: In vitro determined against HRV-14 in a plaque reduction assay; assay type: functional, human rhinovirus type 14; conditions: Rhinovirus B

Compound: Cc1cc(CCCCCOc2c(Cl)cc(C3=NCCO3)cc2Cl)on1 [WIN-54954]
- MIC (Human rhinovirus 1A): 2.5 µM (≈ 0.958 µg/mL)
- MIC (rhinovirus B14): 1.2 µM (≈ 0.46 µg/mL)

Compound: Cc1cc(CC/C=C\COc2c(Cl)cc(C3=NCCO3)cc2Cl)on1
- MIC (Human rhinovirus 1A): 4.72 µM (≈ 1.8 µg/mL)
- MIC (rhinovirus B14): 3.9 µM (≈ 1.49 µg/mL)

Compound: Cc1cc(CCCOc2c(Cl)cc(C3=NCCO3)cc2Cl)on1
- MIC (Human rhinovirus 1A): 0.46 µM (≈ 0.163 µg/mL)
- MIC (rhinovirus B14): 8.14 µM (≈ 2.89 µg/mL)

Compound: Cc1cc(CCC#CCOc2c(Cl)cc(C3=NCCO3)cc2Cl)on1
- MIC (Human rhinovirus 1A): > 8.2 µM
- MIC (rhinovirus B14): 0.26 µM (≈ 0.0986 µg/mL)

Compound: Cc1cc(CC/C=C/COc2c(Cl)cc(C3=NCCO3)cc2Cl)on1
- MIC (Human rhinovirus 1A): 2.25 µM (≈ 0.858 µg/mL)
- MIC (rhinovirus B14): 0.44 µM (≈ 0.168 µg/mL)
